Laboratory results reported in article PMC11945486, “TAS1R2/TAS1R3 Single-Nucleotide Polymorphisms Affect Sweet Taste Receptor Activation by Sweeteners: The SWEET Project” (Nutrients, 2025).
No end group written: not given here.

Target: T1, human TAS1R2-P21L/TAS1R3-WT (Homo sapiens, UniProt Q7RTX0+Q8TE23, P21L)
T1 construct: expressed in transfected cells; host or cells: HEK293T-Gα16gust44
T1 sequence (Q8TE23 20-839 P21L): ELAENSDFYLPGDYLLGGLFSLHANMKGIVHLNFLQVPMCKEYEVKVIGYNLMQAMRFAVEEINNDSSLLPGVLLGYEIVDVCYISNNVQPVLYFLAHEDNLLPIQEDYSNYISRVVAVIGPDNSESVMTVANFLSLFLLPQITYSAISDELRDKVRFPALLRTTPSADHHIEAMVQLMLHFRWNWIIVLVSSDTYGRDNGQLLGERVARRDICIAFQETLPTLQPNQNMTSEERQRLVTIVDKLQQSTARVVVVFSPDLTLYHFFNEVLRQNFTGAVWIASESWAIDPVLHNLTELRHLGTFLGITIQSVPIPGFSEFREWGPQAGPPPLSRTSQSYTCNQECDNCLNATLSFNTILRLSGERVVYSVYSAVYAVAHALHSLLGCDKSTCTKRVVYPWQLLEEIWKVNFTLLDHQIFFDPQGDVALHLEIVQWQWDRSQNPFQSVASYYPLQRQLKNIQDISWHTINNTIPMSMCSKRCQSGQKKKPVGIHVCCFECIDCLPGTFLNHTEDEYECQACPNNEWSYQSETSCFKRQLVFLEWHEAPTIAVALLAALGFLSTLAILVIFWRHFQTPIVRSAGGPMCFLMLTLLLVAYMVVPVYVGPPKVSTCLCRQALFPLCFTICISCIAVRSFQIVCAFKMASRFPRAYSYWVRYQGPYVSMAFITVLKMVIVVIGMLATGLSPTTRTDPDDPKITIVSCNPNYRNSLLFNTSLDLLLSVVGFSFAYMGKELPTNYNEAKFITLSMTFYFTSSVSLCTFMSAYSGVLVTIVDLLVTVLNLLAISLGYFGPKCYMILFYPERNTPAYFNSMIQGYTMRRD
T1 sequence (Q7RTX0 21-852): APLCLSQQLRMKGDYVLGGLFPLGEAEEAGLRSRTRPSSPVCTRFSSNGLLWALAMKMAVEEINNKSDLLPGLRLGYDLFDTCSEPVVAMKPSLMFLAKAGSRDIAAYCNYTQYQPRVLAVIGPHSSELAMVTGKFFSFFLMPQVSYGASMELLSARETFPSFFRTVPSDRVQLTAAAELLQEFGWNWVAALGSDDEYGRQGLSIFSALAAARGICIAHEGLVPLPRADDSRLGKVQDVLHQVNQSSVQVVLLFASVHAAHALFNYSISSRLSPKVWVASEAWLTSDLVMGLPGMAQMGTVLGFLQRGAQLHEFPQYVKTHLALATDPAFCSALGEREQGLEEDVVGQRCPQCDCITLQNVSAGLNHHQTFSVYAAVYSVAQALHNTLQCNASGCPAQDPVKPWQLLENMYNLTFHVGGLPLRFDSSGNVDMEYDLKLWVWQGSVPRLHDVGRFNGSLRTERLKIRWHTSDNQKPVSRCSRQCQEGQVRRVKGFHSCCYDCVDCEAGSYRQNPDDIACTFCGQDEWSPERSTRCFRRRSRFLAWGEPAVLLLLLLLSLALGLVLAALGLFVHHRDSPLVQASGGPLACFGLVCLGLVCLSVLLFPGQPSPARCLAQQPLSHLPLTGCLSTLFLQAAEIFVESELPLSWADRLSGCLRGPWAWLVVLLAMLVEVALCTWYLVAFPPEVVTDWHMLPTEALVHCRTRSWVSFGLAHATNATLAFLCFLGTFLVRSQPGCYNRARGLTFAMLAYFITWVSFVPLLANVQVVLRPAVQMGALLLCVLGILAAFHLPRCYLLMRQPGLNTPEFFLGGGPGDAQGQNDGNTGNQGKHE
Test: Calcium mobilisation assay, TAS1R2 variant P21L with TAS1R3-WT
Type: cell-based
Details: for Max ΔF/F0: maximal signal amplitude
Text: The coding sequences for TAS1R2 and TAS1R3 were commercially synthesised, and the human codon was optimised for expression in human cells. The coding sequences of human TAS1R2 and TAS1R3 were subcloned and inserted into the mammalian expression vectors pcDNA6/myc-HisA and pcDNA4/myc-HisA (Invitrogen; Thermo Fisher Scientific; Illkirch, France) between the EcoRI and NotI restriction sites, generating the plasmids pcDNA6-TAS1R2 and pcDNA4-TAS1R3, respectively. To increase protein expression in mammalian cells, an upstream start codon was used, which was a sequence called MAX, corresponding to the QBI SP163 element also described in pcDNA4-HisMax (Invitrogen; Thermo Fisher Scientific; Illkirch, France). To measure the expression level of the receptor by immunohistochemistry, we used the FLAG sequence ([…]) in the C-terminal position, which encodes the FLAG tag epitope. SNP variants of TAS1R2 and TAS1R3 were constructed based on […], respectively, using site-directed mutagenesis (Genewiz; Leipzig, Germany).
The HEK293T cells were kindly provided by Jay P. Slack (Givaudan Flavors Corporation; Cincinnati, OH, USA). HEK293T cells stably transfected with Gα16gust44 [43, 67] were seeded in poly-D-lysine-coated clear-bottom black 96-well plates (0.35 × 10^5 cells/well) in high-glucose DMEM supplemented with 2 mM GlutaMAX, 10% dialysed foetal bovine serum with penicillin/streptomycin and G418 (400 μg/mL) at 37 °C and 6.3% CO2 in a humidified atmosphere as previously reported. […] As a negative control, HEK293T cells were mock-transfected with the empty expression vector. After a further 24 h of incubation, the HEK293T cells were washed with C1 buffer (130 mM NaCl, 5 mM KCl, 10 mM HEPES pH 7.4 and 2 mM CaCl2). The 96-well plates containing the cells were then stimulated with sweet-tasting compounds. […] Different concentration ranges were tested depending on the sweet compound injected. The Ca^2+ changes were expressed as fractional changes in fluorescent light intensity: ΔF/F = (F − F0)/F0, where F was the fluorescent light intensity at each point, and F0 was the value of emitted fluorescent light prior to stimulus application. To calculate dose–response relationships, the changes in fluorescence upon stimulus application were averaged, mock-subtracted and baseline-corrected. The dose–response data obtained were adjusted using a 4-parameter logistic equation. The half-maximal effective concentrations (EC50 values) and maximal signal amplitudes were calculated using SigmaPlot software (version 15.0) (Systat Software; San Jose, CA, USA).
For in vitro calcium mobilisation assay performed on hTAS1R2-SNPs, hTAS1R3-SNPs and mTAS1R3-I60T, 6 to 7 concentrations were tested for each sweet compound, plus buffer alone. All concentration–receptor combinations were measured in duplicate, and each experiment was repeated at least 4 times (8 wells/concentration). Results were expressed for each concentration as ΔF/F mean ± SEM and represented as dose–response curves.

CC1=CC(=O)NS(=O)(=O)O1 [Acesulfame K, acesulfame K]
EC50: 374 ± 11 µM
R1 = Variant EC50/WT EC50: 0.5
Max ΔF/F0: 0.24 ± 0.01

O=S(=O)(O)NC1CCCCC1 [Cyclamate, cyclamate]
EC50: 2110 ± 55 µM

C[C@H](CC[C@@H](O[C@@H]1O[C@H](CO[C@@H]2O[C@H](CO)[C@@H](O)[C@H](O)[C@H]2O)[C@@H](O)[C@H](O)[C@H]1O[C@@H]1O[C@H](CO)[C@@H](O)[C@H](O)[C@H]1O)C(C)(C)O)[C@H]1CC[C@@]2(C)[C@@H]3CC=C4[C@@H](CC[C@H](O[C@@H]5O[C@H](CO[C@@H]6O[C@H](CO)[C@@H](O)[C@H](O)[C@H]6O)[C@@H](O)[C@H](O)[C@H]5O)C4(C)C)[C@]3(C)[C@H](O)C[C@]12C [Mogroside V, mogroside V]
EC50: 19.9 ± 1.1 µM
R1 = Variant EC50/WT EC50: 1.2
Max ΔF/F0: 1.18 ± 0.02

COc1ccc(CCC(=O)c2c(O)cc(O[C@@H]3O[C@H](CO)[C@@H](O)[C@H](O)[C@H]3O[C@@H]3O[C@@H](C)[C@H](O)[C@@H](O)[C@H]3O)cc2O)cc1O [NHDC, neohesperidin dihydrochalcone]
EC50: 100 ± 5.1 µM
R1 = Variant EC50/WT EC50: 1.3
Max ΔF/F0: 0.81 ± 0.02

COC(=O)[C@H](Cc1ccccc1)NC(=O)[C@H](CC(=O)O)NCCC(C)(C)C [Neotame]
EC50: 0.67 ± 0.16 µM
R1 = Variant EC50/WT EC50: 0.8
Max ΔF/F0: 0.53 ± 0.04

C=C(C)[C@@H]1CC=C(/C=N/O)CC1 [Perillartine, perillartine]
EC50: 26.3 ± 1.1 µM
R1 = Variant EC50/WT EC50: 1.5
Max ΔF/F0: 1.35 ± 0.03

C=C1C[C@@]23CC[C@H]4[C@@](C)(CCC[C@@]4(C)C(=O)O[C@@H]4O[C@H](CO)[C@@H](O)[C@H](O[C@@H]5O[C@H](CO)[C@@H](O)[C@H](O)[C@H]5O)[C@H]4O[C@@H]4O[C@H](CO)[C@@H](O)[C@H](O)[C@H]4O)[C@@H]2CC[C@]1(O[C@@H]1O[C@H](CO)[C@@H](O)[C@H](O[C@@H]2O[C@H](CO)[C@@H](O)[C@H](O)[C@H]2O)[C@H]1O[C@@H]1O[C@H](CO)[C@@H](O)[C@H](O)[C@H]1O)C3 [Rebaudioside M, rebaudioside M]
EC50: 19.5 ± 0.9 µM
R1 = Variant EC50/WT EC50: 1.2
Max ΔF/F0: 0.99 ± 0.02

OC[C@H]1O[C@H](O[C@]2(CCl)O[C@H](CCl)[C@@H](O)[C@@H]2O)[C@H](O)[C@@H](O)[C@H]1Cl [Sucralose]
EC50: 80 ± 13 µM
R1 = Variant EC50/WT EC50: 0.9
Max ΔF/F0: 0.50 ± 0.03

brazzein (QDKCKKVYENYPVSKCQLANQCNYDCKLDKHARSGECFYDEKRNLQCICDYCEY; ends and bridges not checked; cysteine pairing not given here; UniProt P56552 1-54, looked up) [sweet-tasting protein obtained by recombinant production using the yeast Pichia pastoris]
R1 = Variant EC50/WT EC50: 1.1
Max ΔF/F0: 1.09 ± 0.01

thaumatin
R1 = Variant EC50/WT EC50: 0.4
Max ΔF/F0: 0.19 ± 0.04

B1: thaumatin (protein)
chain: ATFEIVNRCSYTVWAAASKGDAALDAGGRQLNSGESWTINVEPGTKGGKIWARTDCYFDDSGSGICKTGDCGGLLRCKRFGRPPTTLAEFSLNQYGKDYIDISNIKGFNVPMDFSPTTRGCRGVRCAADIVGQCPAKLKAPGGGCNDACTVFQTSEYCCTTGKCGPTEYSRFFKRLCPDAFSYVLDKPTTVTCPGSSNYRVTFCPTA
modifications: Eight disulfides
notes: sweet-tasting plant protein, E957
EC50: 3.3 µM
